Reference: ChEMBL document CHEMBL1909046, “DrugMatrix in vitro pharmacology data”

target: Tyrosine-protein kinase Lck (Homo sapiens, UniProt P06239); assay: DRUGMATRIX: Protein Tyrosine Kinase, LCK enzyme inhibition (substrate: Poly(Glu:Tyr)); format: cell-based, Insect cells; conditions: insect cells; Not Active = under 50% inhibition at 10 µM
Sequence (P06239 whole entry): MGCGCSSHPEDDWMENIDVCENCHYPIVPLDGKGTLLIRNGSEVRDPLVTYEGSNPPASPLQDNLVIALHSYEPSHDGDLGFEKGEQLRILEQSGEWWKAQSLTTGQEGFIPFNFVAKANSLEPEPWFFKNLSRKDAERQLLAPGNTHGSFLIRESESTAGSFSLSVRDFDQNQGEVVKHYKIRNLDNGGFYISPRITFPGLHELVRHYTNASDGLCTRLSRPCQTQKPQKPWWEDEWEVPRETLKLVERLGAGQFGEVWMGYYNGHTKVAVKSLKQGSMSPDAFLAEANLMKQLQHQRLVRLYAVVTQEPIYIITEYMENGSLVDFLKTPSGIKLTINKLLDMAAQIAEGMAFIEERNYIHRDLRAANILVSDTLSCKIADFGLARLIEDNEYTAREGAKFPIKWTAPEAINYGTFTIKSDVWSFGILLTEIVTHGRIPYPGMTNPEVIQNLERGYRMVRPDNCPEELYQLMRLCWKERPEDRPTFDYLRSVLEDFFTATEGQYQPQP

| Structure (SMILES) | IC50 |
| --- | --- |
| COC(=O)c1ccc(O)cc1 [METHYLPARABEN] | Not Active |
| c1ccc2[nH]c(-c3cscn3)nc2c1 [THIABENDAZOLE] | Not Active |
| C[C@](N)(Cc1ccc(O)cc1)C(=O)O [METYROSINE] | Not Active |
| CCC[C@@H]1C[C@@H](C(=O)N[C@@H]([C@H]2O[C@H](SC)[C@H](O)[C@@H](O)[C@H]2O)[C@@H](C)O)N(C)C1 [LINCOMYCIN] | Not Active |
| Clc1ccc(C(c2ccccc2Cl)C(Cl)Cl)cc1 (stereo not given) [MITOTANE] | Not Active |

target: C-C chemokine receptor type 2 (Homo sapiens, UniProt P41597); assay: not given; format: cell membranes, CHO-K1, Membrane; conditions: cho-k1; also: in other assays of this panel Not Active means under 50% inhibition at 10 µM
Sequence (P41597 whole entry): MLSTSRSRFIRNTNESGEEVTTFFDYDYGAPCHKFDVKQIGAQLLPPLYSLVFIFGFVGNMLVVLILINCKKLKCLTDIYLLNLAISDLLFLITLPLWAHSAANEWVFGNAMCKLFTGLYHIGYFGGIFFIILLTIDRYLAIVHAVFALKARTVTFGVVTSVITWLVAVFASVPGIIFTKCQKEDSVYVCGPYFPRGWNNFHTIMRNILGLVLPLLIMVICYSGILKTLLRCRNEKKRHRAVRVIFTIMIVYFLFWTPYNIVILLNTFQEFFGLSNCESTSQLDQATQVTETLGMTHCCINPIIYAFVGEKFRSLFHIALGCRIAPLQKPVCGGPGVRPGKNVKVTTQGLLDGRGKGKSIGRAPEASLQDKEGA

| Structure (SMILES) | IC50 |
| --- | --- |
| COC(=O)c1ccc(O)cc1 [METHYLPARABEN] | Not Active |
| c1ccc2[nH]c(-c3cscn3)nc2c1 [THIABENDAZOLE] | Not Active |
| C[C@](N)(Cc1ccc(O)cc1)C(=O)O [METYROSINE] | Not Active |
| CCC[C@@H]1C[C@@H](C(=O)N[C@@H]([C@H]2O[C@H](SC)[C@H](O)[C@@H](O)[C@H]2O)[C@@H](C)O)N(C)C1 [LINCOMYCIN] | Not Active |
| Clc1ccc(C(c2ccccc2Cl)C(Cl)Cl)cc1 (stereo not given) [MITOTANE] | Not Active |

test system: not listed separately; assay: DRUGMATRIX: Interleukin IL-1 radioligand binding (ligand: [125I] interleukin 1beta); format: cell membranes, Membrane; conditions: nih3t3; Not Active = under 50% inhibition at 10 µM

| Structure (SMILES) | IC50 | Ki |
| --- | --- | --- |
| COC(=O)c1ccc(O)cc1 [METHYLPARABEN] | Not Active | Not Active |
| c1ccc2[nH]c(-c3cscn3)nc2c1 [THIABENDAZOLE] | Not Active | Not Active |
| C[C@](N)(Cc1ccc(O)cc1)C(=O)O [METYROSINE] | Not Active | Not Active |
| CCC[C@@H]1C[C@@H](C(=O)N[C@@H]([C@H]2O[C@H](SC)[C@H](O)[C@@H](O)[C@H]2O)[C@@H](C)O)N(C)C1 [LINCOMYCIN] | Not Active | Not Active |
| Clc1ccc(C(c2ccccc2Cl)C(Cl)Cl)cc1 (stereo not given) [MITOTANE] | Not Active | Not Active |

target: Matrix metalloproteinase-9 (Homo sapiens, UniProt P14780); assay: not given; format: cell-based; conditions: not given;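 also: inhibition of isolated MMP-9 enzyme activity toward a synthetic peptide substrate, from the DrugMatrix protease screening panel; in other assays of this panel Not Active means under 50% inhibition at 10 µM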
Sequence (P14780 whole entry): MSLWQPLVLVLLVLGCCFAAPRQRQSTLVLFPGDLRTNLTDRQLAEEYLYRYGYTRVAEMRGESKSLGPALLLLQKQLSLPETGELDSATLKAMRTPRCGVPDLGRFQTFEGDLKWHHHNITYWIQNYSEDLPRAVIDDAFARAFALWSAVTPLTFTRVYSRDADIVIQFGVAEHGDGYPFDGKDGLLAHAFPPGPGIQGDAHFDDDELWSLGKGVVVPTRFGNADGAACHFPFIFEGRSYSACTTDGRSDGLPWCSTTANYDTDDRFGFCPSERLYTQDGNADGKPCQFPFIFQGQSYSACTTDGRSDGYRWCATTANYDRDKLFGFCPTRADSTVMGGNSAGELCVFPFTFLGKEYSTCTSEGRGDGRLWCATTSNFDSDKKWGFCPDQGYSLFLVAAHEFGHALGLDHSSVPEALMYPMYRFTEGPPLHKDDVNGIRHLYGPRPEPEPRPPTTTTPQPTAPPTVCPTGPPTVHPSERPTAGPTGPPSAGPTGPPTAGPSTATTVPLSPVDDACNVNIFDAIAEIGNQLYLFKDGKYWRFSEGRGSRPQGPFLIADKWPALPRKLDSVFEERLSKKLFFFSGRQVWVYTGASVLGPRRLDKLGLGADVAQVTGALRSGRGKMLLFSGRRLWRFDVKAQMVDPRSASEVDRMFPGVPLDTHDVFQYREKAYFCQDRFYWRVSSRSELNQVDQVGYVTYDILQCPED

| Structure (SMILES) | IC50 |
| --- | --- |
| COC(=O)c1ccc(O)cc1 [METHYLPARABEN] | Not Active |
| c1ccc2[nH]c(-c3cscn3)nc2c1 [THIABENDAZOLE] | Not Active |
| C[C@](N)(Cc1ccc(O)cc1)C(=O)O [METYROSINE] | Not Active |
| CCC[C@@H]1C[C@@H](C(=O)N[C@@H]([C@H]2O[C@H](SC)[C@H](O)[C@@H](O)[C@H]2O)[C@@H](C)O)N(C)C1 [LINCOMYCIN] | Not Active |
| Clc1ccc(C(c2ccccc2Cl)C(Cl)Cl)cc1 (stereo not given) [MITOTANE] | Not Active |

target: T1, Muscarinic acetylcholine receptor M2 (Homo sapiens, UniProt P08172); assay: not given; format: cell membranes, CHO-K1, Membrane; conditions: cho-k1; also: in other assays of this panel Not Active means under 50% inhibition at 10 µM
T1 sequence (P08172 whole entry): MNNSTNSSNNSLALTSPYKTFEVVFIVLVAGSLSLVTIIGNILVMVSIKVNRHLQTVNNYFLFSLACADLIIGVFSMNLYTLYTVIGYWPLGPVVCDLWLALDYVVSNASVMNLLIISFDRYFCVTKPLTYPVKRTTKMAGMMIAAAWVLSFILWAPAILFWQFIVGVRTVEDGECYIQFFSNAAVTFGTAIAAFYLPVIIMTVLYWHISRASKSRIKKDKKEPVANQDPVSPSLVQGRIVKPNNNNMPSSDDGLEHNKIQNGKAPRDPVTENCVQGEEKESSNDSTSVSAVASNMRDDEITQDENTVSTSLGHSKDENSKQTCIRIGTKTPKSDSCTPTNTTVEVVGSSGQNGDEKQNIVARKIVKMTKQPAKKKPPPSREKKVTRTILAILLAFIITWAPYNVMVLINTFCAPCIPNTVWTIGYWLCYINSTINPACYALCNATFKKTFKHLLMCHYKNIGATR

| Structure (SMILES) | IC50 |
| --- | --- |
| COC(=O)c1ccc(O)cc1 [METHYLPARABEN] | Not Active |
| c1ccc2[nH]c(-c3cscn3)nc2c1 [THIABENDAZOLE] | Not Active |
| C[C@](N)(Cc1ccc(O)cc1)C(=O)O [METYROSINE] | Not Active |
| CCC[C@@H]1C[C@@H](C(=O)N[C@@H]([C@H]2O[C@H](SC)[C@H](O)[C@@H](O)[C@H]2O)[C@@H](C)O)N(C)C1 [LINCOMYCIN] | Not Active |
| Clc1ccc(C(c2ccccc2Cl)C(Cl)Cl)cc1 (stereo not given) [MITOTANE] | Not Active |

target: Carbonic anhydrase 2 (Homo sapiens, UniProt P00918); assay: DRUGMATRIX: Carbonic Anhydrase II enzyme inhibition (substrate: 4-Nitrophenyl acetate (4-NPA)); format: tissue-based, Erythrocyte; conditions: erythrocyte; Not Active = under 50% inhibition at 10 µM

| Structure (SMILES) | IC50 |
| --- | --- |
| COC(=O)c1ccc(O)cc1 [METHYLPARABEN] | Not Active |
| c1ccc2[nH]c(-c3cscn3)nc2c1 [THIABENDAZOLE] | Not Active |
| C[C@](N)(Cc1ccc(O)cc1)C(=O)O [METYROSINE] | Not Active |
| CCC[C@@H]1C[C@@H](C(=O)N[C@@H]([C@H]2O[C@H](SC)[C@H](O)[C@@H](O)[C@H]2O)[C@@H](C)O)N(C)C1 [LINCOMYCIN] | Not Active |
| Clc1ccc(C(c2ccccc2Cl)C(Cl)Cl)cc1 (stereo not given) [MITOTANE] | Not Active |

target: T2, Amine oxidase [flavin-containing] A (Homo sapiens, UniProt P21397); assay: DRUGMATRIX: Monoamine Oxidase MAO-A enzyme inhibition (substrate: Kynuramine); parameters: species or system BTI-TN-5B1-4; conditions: bti-tn-5b1-4; Not Active = under 50% inhibition at 10 µM
T2 sequence (P21397 whole entry): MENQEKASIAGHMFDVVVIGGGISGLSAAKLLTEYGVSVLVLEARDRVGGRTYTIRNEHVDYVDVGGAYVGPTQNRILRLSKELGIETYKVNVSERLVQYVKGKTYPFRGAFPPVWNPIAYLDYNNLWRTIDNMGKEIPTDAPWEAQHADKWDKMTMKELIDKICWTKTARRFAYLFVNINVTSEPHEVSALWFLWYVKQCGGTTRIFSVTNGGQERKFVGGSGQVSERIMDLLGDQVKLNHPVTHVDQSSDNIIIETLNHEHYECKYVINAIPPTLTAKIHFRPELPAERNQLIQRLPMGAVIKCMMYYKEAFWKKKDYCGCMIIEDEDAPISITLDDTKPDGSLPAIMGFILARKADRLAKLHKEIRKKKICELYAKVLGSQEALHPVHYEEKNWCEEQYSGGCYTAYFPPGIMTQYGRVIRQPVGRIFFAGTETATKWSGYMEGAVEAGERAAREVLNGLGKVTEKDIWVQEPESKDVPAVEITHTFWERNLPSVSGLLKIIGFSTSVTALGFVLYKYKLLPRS

| Structure (SMILES) | IC50 |
| --- | --- |
| COC(=O)c1ccc(O)cc1 [METHYLPARABEN] | Not Active |
| c1ccc2[nH]c(-c3cscn3)nc2c1 [THIABENDAZOLE] | Not Active |
| C[C@](N)(Cc1ccc(O)cc1)C(=O)O [METYROSINE] | Not Active |
| CCC[C@@H]1C[C@@H](C(=O)N[C@@H]([C@H]2O[C@H](SC)[C@H](O)[C@@H](O)[C@H]2O)[C@@H](C)O)N(C)C1 [LINCOMYCIN] | Not Active |
| Clc1ccc(C(c2ccccc2Cl)C(Cl)Cl)cc1 (stereo not given) [MITOTANE] | Not Active |

target: 5-hydroxytryptamine receptor 4 (Cavia porcellus, UniProt O70528); assay: not given; format: cell membranes, Dunkin-Hartley, Striatum, Membrane; conditions: not given; also: in other assays of this panel Not Active means under 50% inhibition at 10 µM
Sequence (O70528 whole entry): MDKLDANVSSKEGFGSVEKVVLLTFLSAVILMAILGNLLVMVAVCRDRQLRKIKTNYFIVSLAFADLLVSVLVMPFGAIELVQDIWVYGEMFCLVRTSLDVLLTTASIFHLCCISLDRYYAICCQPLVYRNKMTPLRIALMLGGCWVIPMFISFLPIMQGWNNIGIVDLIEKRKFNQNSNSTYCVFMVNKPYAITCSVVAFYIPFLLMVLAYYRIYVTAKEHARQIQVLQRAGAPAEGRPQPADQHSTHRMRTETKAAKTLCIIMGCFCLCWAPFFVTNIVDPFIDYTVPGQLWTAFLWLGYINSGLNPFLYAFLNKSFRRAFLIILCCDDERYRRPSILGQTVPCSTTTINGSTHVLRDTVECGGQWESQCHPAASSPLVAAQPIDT

| Structure (SMILES) | IC50 |
| --- | --- |
| COC(=O)c1ccc(O)cc1 [METHYLPARABEN] | Not Active |
| c1ccc2[nH]c(-c3cscn3)nc2c1 [THIABENDAZOLE] | Not Active |
| C[C@](N)(Cc1ccc(O)cc1)C(=O)O [METYROSINE] | Not Active |
| CCC[C@@H]1C[C@@H](C(=O)N[C@@H]([C@H]2O[C@H](SC)[C@H](O)[C@@H](O)[C@H]2O)[C@@H](C)O)N(C)C1 [LINCOMYCIN] | Not Active |
| Clc1ccc(C(c2ccccc2Cl)C(Cl)Cl)cc1 (stereo not given) [MITOTANE] | Not Active |

test system: not listed separately; assay: DRUGMATRIX: Phosphodiesterase PDE3 enzyme inhibition (substrate: [3H]cAMP + cAMP); format: tissue-based, Homo sapiens; conditions: platelet; Not Active = under 50% inhibition at 10 µM

| Structure (SMILES) | IC50 | Ki |
| --- | --- | --- |
| COC(=O)c1ccc(O)cc1 [METHYLPARABEN] | Not Active | Not Active |
| c1ccc2[nH]c(-c3cscn3)nc2c1 [THIABENDAZOLE] | Not Active | Not Active |
| C[C@](N)(Cc1ccc(O)cc1)C(=O)O [METYROSINE] | Not Active | Not Active |
| CCC[C@@H]1C[C@@H](C(=O)N[C@@H]([C@H]2O[C@H](SC)[C@H](O)[C@@H](O)[C@H]2O)[C@@H](C)O)N(C)C1 [LINCOMYCIN] | Not Active | Not Active |
| Clc1ccc(C(c2ccccc2Cl)C(Cl)Cl)cc1 (stereo not given) [MITOTANE] | Not Active | Not Active |

target: T3, Angiotensin-converting enzyme (Oryctolagus cuniculus, UniProt P12822); assay: biochemical; format: tissue-based, Lung; conditions: not given
T3 sequence (P12822 whole entry): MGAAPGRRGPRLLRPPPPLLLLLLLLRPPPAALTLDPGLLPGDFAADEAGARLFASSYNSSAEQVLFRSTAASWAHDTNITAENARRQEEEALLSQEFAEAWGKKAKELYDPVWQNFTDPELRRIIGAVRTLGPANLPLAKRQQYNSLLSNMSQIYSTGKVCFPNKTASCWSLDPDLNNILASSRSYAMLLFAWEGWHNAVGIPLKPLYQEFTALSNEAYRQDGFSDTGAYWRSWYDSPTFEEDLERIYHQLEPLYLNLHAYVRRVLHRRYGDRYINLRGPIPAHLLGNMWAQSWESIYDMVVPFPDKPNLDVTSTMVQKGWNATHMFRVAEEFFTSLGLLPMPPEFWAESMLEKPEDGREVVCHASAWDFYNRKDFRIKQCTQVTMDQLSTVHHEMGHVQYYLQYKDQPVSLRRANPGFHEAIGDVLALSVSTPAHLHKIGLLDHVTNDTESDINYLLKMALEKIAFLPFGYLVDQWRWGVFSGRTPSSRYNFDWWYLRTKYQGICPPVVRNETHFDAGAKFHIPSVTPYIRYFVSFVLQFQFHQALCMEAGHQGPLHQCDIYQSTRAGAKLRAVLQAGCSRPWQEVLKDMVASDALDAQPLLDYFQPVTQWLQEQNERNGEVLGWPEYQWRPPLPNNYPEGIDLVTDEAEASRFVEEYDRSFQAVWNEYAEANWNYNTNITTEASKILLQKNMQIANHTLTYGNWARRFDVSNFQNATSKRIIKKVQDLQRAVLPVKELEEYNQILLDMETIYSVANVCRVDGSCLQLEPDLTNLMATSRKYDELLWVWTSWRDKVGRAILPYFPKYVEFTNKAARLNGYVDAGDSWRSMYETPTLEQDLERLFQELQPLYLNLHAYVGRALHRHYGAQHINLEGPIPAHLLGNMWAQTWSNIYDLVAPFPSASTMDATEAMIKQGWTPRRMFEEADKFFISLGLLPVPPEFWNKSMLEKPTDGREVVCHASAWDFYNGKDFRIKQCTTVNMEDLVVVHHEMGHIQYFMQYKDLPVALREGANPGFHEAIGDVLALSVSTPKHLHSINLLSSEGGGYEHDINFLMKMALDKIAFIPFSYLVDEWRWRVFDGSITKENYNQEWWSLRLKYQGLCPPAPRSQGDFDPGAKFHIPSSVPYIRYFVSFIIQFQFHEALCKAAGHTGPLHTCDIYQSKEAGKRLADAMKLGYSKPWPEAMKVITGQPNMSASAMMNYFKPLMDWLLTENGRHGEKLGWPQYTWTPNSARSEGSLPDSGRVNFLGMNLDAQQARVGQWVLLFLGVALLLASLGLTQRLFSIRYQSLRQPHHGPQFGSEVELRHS

| Structure (SMILES) | IC50 |
| --- | --- |
| COC(=O)c1ccc(O)cc1 [METHYLPARABEN] | Not Active |
| c1ccc2[nH]c(-c3cscn3)nc2c1 [THIABENDAZOLE] | Not Active |
| C[C@](N)(Cc1ccc(O)cc1)C(=O)O [METYROSINE] | Not Active |
| CCC[C@@H]1C[C@@H](C(=O)N[C@@H]([C@H]2O[C@H](SC)[C@H](O)[C@@H](O)[C@H]2O)[C@@H](C)O)N(C)C1 [LINCOMYCIN] | Not Active |
| Clc1ccc(C(c2ccccc2Cl)C(Cl)Cl)cc1 (stereo not given) [MITOTANE] | Not Active |
